Measured values taken from patent US20040185108A1, “Method of preparing gas-filled polymer matrix microparticles useful for delivering drug” (priority 2003, published 2004).

Test: Release of oxybutynin using ultrasound from oxybutynin-containing polymer matrix microparticles (reverse phase HPLC)
Type: physicochemical
Protocol: Four vials containing product manufactured in accordance with Example 5 were each reconstituted with 10 mL of 20 mM KPO4 at pH 3.5 (wash solution). The oxybutynin containing microparticles from two of the vials were retrieved by centrifugation at 1500 rpm for 15 minutes. The microparticles were resuspended in 10 mL of wash solution and vortexed. The washing procedure was repeated two more times. The final washed matrix microparticles were resuspended in a total volume of 10 mL of wash solution. The remaining two vials were not washed. One vial from each set was designated the control sample and the other vial was the experimental sample.
The controls remained undisturbed for 80 minutes to allow the matrix microparticles to float. The subnatant was removed and centrifuged at 14,000 rpm for 2 minutes. The experimental samples were each sonicated for 1 minute on level 5 using a Virtis Virsonic hand-held sonicator. […] The suspensions were centrifuged at 14,000 rpm for 2 minutes. All four of the resulting supernatants were retrieved and analyzed by reverse phase HPLC. […] The amount of oxybutynin in each sample was calculated from the area using the standard curve.

burst release of oxybutynin, of the recovered amount (microparticles of Example 5): 34% | oxybutynin released due to sonication, of the recovered amount (microparticles of Example 5): 66% | amount of oxybutynin in supernatant, unwashed control sample (microparticles of Example 5, unwashed, not sonicated, undisturbed 80 minutes): 0.65 mg oxybutynin/vial | amount of oxybutynin in supernatant, unwashed experimental sample (microparticles of Example 5, unwashed, sonicated 1 minute level 5): 1.93 mg/vial | leakage of drug after reconstitution (microparticles of Example 5, washed control, burst release removed): little to no leakage | amount of oxybutynin in supernatant, washed control sample (microparticles of Example 5, washed, not sonicated, undisturbed 80 minutes, 20 mM KPO4 pH 3.5): 0.03 mg oxybutynin/vial | amount of oxybutynin in supernatant, washed experimental sample (microparticles of Example 5, washed, sonicated 1 minute level 5, 20 mM KPO4 pH 3.5): 1.05 mg/vial | total oxybutynin recovered after sonication compared to theoretical loading (microparticles of Example 5, theoretical loading 2.4 mg/vial): 80%
SMILES: CCN(CC)CC#CCOC(=O)C(O)(c1ccccc1)C1CCCCC1 (centres unmarked) [oxybutynin]
